ChEMBL document CHEMBL1201862, “PubChem BioAssay data set” (2004)
Calls of active or inactive are those of the source.

Experiments:
[1] = biological target: ADP-ribosylation factor GTPase-activating protein 1 (Rattus norvegicus, UniProt Q62848); assay: Fluorescence polarization-based biochemical high throughput dose response screening assay to identify inhibitors of ADP-ribosylation factor GTPase activating protein 1 (ARFGAP1).; type: functional
[2] = biological target: T1, Fatty acid synthase (Homo sapiens, UniProt P49327); assay: FAS thioesterase domain inhibitors, dose response, biochemical, endpoint fluorescence intensity, uHTS hits (AID 624327); type: functional;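 note: fluorescence from hydrolysis of an O-methyl fluorescein acyl ester substrate by the enzyme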
[3] = biological target: T1, Fatty acid synthase; assay: FAS thioesterase domain inhibitors, dose response, biochemical, kinetic fluorescence intensity (AID 624326); type: functional;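 note: rate of fluorescence rise from hydrolysis of a fluorogenic O-methyl fluorescein ester substrate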
[4] = Counterscreen for inhibitors of Trypanosoma brucei methionyl tRNA synthetase (MetRS): Luminescence-based cell-based high throughput dose response assay to identify compounds that are cytotoxic to Jurkat human T lymphocyte cells.; type: functional
[5] = biological target: T2, Methionyl-tRNA synthetase, putative (Trypanosoma brucei brucei, UniProt Q38C91); type: functional, Trypanosoma brucei brucei strain 927/4 GUTat10.1
[6] = biological target: T2, Methionyl-tRNA synthetase, putative; type: functional, Trypanosoma brucei brucei strain 927/4 GUTat10.1; remark: listed apart in the source
[7] = biological target: UDP-galactopyranose mutase (Mycobacterium tuberculosis, UniProt P9WIQ1); assay: Inhibitors of Mycobacterium tuberculosis UDP-galactopyranose mutase (UGM) enzyme Measured in Biochemical System Using Plate Reader - 2105-02_Inhibitor_Dose_CherryPick_Activity. [Related pubchem assays (depositor defined):AID504439]
[8] = biological target: T3, Beta Lactamase (Pseudomonas aeruginosa, UniProt Q932Y6);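 note: confirmatory high-throughput screen measuring VIM-2 metallo-beta-lactamase inhibition by epi-absorbance in dose response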
[9] = biological target: Beta-lactamase (Pseudomonas aeruginosa, UniProt Q79MP6);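 note: biochemical dose-response test of metallo-beta-lactamase enzyme inhibition, read out by epi-absorbance; purified recombinant IMP-1 metallo-beta-lactamase with nitrocefin as substrate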
[10] = test system: Streptococcus; assay: Group A Streptococcus viability loss, dose response, counter-screen for streptokinase expression inhibitor project, luminescence, BacTiterGlo (AID 1915); type: functional, organism-based;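 note: potency for reduction of bacterial viability or growth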
[11] = biological target: T4, ORF 73 (Human herpesvirus 8, UniProt O40947); assay: inhibitors of C-LANA binding to LBS DNA, dose response, biochemical, fluorescence polarization, cherry-picked samples (AID 504725); parameters: species or system Human gammaherpesvirus 8;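 note: fluorescence polarization of a labeled DNA duplex reporting LANA DNA binding; potency is for inhibitors that block LANA binding to the DNA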
T4 sequence (O40947 whole entry): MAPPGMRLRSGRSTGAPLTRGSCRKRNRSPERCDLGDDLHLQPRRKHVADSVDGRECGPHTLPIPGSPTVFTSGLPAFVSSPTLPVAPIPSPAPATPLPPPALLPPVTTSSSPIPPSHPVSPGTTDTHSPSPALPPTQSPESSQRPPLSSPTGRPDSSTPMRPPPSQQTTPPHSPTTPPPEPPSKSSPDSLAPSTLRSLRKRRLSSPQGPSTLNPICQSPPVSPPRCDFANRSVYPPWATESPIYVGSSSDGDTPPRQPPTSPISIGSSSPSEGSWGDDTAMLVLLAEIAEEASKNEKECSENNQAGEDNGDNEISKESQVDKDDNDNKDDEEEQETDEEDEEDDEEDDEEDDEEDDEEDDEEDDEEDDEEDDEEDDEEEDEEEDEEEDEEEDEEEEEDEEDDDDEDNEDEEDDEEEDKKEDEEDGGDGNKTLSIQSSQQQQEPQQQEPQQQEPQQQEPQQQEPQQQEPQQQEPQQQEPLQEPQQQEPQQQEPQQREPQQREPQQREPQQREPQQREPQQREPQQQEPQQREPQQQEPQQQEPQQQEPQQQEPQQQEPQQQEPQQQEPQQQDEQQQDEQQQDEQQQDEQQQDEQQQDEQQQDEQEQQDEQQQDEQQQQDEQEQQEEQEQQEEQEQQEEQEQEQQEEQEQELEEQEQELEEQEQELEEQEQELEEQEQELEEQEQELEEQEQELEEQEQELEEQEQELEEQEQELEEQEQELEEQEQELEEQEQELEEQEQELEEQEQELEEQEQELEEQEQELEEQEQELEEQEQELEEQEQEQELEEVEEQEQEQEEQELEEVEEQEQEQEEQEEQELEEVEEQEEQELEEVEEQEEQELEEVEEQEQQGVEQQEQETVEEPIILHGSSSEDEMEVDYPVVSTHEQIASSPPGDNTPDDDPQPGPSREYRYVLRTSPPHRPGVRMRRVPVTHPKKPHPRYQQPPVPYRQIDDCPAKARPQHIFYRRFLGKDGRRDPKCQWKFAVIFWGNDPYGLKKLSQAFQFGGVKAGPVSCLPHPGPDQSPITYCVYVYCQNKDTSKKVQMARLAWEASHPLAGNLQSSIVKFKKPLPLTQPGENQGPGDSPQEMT

[12] = biological target: T3, Beta Lactamase; assay: beta-lactamase reporter inhibitor potency, dose response, artefact control for TLR9-MyD88 binding inhibitor project, BLA reporter cells, FRET fluorescence (AID 588341); type: cell-based;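 note: cell based assay in CHO-K1 cells stably expressing beta-lactamase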
[13] = biological target: Beta-lactamase (Salmonella choleraesuis (strain SC-B67), UniProt Q5J463)
[14] = test system: Streptococcus sp. 'group A'; assay: growth inhibition of control SK(-) GAS strain, dose response, counter-screen for streptokinase expression inhibitor project, luminescence, kanamycin, BacTiterGlo, confirmation (AID 1900); type: functional, organism-based
[15] = test system: CHO; assay: cytotoxicity in TLR9-MyD88 CHO cells, dose response, cytotoxicity control for TLR9-MyD88 binding inhibitor project, cell-based, luminescence (AID 588339); type: functional, hamster; details: Cricetulus griseus;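 note: CHO cells stably coexpressing TLR9 and MyD88 fusions from primary screen; compound exposure lasted 48 hours before viability readout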
[16] = biological target: T5, Streptokinase A (Streptococcus pyogenes serotype M1, UniProt P10520); assay: S. pyogenes streptokinase expression inhibitors, potency, dose response, plasminogen activation absorbance, OD405 (AID 1914); type: functional, Streptococcus pyogenes M1 GAS;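 note: secreted streptokinase activity via plasminogen activation per viability signal from cell pellet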
T5 sequence (P10520 whole entry): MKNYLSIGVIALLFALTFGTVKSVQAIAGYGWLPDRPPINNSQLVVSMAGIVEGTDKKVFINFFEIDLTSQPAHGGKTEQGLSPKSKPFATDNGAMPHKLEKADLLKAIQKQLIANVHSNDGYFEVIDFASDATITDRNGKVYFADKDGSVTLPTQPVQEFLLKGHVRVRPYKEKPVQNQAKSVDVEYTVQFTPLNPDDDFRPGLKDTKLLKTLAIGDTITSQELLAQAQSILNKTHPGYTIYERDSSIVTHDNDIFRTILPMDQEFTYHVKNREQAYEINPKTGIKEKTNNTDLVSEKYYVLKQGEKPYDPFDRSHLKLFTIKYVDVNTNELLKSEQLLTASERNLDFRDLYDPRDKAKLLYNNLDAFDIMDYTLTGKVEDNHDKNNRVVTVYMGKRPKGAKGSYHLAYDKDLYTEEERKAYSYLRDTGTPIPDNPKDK

[17] = biological target: Voltage-dependent T-type calcium channel subunit alpha-1H (Homo sapiens, UniProt O95180); type: functional;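 note: channel activity triggered by adding a high calcium stimulation buffer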
[18] = biological target: 26S proteasome non-ATPase regulatory subunit 14 (Homo sapiens, UniProt O00487); assay: inhibition of proteasome subunit RPN11 – biochemical, fluorescence polarization, uHTS hits, confirmation (AID 602368); type: functional
[19] = biological target: 72 kDa type IV collagenase (Homo sapiens, UniProt P08253); assay: Dose Response validation of uHTS RPN11 inhibitor hits using a MMP-2 Fluorescence assay.; type: functional
[20] = biological target: Tyrosine-protein phosphatase non-receptor type 11 (Homo sapiens, UniProt Q06124); assay: SHP2 phosphatase inhibition, dose response, selectivity assay for STEP inhibitor project, biochemical (AID 602367); type: functional; details: read-out: IC50_Mean
[21] = HEK293T cytotoxicity, dose response, cytotoxicity control for miR-122 modulator project, cell-based, inhibitor set, cherry-pick, set 2 (AID 720697); type: functional
[22] = biological target: Tyrosine-protein phosphatase non-receptor type 5 (Homo sapiens, UniProt P54829); assay: STEP phosphatase inhibitors, confirmation, biochemical, fluorescence intensity, uHTS hits (AID 602372); type: functional; details: read-out: IC50_Mean
[23] = biological target: T6, Tyrosine-protein phosphatase non-receptor type 22 (Homo sapiens, UniProt Q9Y2R2); assay: PTPN22 phosphatase inhibition, dose response, selectivity assay for STEP inhibitor project, biochemical (AID 624241); type: functional
T6 sequence (Q9Y2R2 whole entry): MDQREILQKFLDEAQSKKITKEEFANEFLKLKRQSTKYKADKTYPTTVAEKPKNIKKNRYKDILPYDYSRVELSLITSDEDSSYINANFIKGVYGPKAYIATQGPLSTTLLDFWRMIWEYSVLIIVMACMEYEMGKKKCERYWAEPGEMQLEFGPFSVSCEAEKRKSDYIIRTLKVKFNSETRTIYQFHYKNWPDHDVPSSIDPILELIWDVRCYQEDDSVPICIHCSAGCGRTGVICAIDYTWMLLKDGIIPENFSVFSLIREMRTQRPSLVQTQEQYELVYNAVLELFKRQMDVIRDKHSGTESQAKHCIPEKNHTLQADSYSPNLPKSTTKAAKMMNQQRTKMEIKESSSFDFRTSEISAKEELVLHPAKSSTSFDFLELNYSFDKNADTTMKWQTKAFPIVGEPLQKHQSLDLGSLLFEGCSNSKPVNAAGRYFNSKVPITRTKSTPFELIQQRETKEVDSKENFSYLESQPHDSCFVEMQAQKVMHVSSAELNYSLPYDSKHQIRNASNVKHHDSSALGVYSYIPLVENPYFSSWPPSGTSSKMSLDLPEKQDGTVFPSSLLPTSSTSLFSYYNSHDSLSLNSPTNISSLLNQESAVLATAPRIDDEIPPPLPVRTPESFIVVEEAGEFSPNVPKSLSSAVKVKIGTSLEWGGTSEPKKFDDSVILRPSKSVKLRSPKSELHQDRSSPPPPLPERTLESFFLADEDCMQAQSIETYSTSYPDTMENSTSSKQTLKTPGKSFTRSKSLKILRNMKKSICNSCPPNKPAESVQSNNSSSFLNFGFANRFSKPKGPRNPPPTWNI

[24] = biological target: Dual specificity protein phosphatase 3 (Homo sapiens, UniProt P51452); assay: VHR phosphatase inhibition, dose response, selectivity assay for STEP inhibitor project, biochemical (AID 602374); type: functional; details: read-out: IC50_Mean
[25] = HEK293T cytotoxicity, dose response, cytotoxicity control for miR-122 modulator project, cell-based, activator set, cherry-pick (AID 720690); type: functional;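 note: HEK293T human cells scored for general mammalian cytotoxicity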
[26] = biological target: Prothrombin (Bos taurus, UniProt P00735); assay: thrombin inhibition, dose response, biochemical, fluorescence polarization, uHTS hits (AID 602369); type: functional

T1 sequence (P49327 whole entry, the tested form may be a part): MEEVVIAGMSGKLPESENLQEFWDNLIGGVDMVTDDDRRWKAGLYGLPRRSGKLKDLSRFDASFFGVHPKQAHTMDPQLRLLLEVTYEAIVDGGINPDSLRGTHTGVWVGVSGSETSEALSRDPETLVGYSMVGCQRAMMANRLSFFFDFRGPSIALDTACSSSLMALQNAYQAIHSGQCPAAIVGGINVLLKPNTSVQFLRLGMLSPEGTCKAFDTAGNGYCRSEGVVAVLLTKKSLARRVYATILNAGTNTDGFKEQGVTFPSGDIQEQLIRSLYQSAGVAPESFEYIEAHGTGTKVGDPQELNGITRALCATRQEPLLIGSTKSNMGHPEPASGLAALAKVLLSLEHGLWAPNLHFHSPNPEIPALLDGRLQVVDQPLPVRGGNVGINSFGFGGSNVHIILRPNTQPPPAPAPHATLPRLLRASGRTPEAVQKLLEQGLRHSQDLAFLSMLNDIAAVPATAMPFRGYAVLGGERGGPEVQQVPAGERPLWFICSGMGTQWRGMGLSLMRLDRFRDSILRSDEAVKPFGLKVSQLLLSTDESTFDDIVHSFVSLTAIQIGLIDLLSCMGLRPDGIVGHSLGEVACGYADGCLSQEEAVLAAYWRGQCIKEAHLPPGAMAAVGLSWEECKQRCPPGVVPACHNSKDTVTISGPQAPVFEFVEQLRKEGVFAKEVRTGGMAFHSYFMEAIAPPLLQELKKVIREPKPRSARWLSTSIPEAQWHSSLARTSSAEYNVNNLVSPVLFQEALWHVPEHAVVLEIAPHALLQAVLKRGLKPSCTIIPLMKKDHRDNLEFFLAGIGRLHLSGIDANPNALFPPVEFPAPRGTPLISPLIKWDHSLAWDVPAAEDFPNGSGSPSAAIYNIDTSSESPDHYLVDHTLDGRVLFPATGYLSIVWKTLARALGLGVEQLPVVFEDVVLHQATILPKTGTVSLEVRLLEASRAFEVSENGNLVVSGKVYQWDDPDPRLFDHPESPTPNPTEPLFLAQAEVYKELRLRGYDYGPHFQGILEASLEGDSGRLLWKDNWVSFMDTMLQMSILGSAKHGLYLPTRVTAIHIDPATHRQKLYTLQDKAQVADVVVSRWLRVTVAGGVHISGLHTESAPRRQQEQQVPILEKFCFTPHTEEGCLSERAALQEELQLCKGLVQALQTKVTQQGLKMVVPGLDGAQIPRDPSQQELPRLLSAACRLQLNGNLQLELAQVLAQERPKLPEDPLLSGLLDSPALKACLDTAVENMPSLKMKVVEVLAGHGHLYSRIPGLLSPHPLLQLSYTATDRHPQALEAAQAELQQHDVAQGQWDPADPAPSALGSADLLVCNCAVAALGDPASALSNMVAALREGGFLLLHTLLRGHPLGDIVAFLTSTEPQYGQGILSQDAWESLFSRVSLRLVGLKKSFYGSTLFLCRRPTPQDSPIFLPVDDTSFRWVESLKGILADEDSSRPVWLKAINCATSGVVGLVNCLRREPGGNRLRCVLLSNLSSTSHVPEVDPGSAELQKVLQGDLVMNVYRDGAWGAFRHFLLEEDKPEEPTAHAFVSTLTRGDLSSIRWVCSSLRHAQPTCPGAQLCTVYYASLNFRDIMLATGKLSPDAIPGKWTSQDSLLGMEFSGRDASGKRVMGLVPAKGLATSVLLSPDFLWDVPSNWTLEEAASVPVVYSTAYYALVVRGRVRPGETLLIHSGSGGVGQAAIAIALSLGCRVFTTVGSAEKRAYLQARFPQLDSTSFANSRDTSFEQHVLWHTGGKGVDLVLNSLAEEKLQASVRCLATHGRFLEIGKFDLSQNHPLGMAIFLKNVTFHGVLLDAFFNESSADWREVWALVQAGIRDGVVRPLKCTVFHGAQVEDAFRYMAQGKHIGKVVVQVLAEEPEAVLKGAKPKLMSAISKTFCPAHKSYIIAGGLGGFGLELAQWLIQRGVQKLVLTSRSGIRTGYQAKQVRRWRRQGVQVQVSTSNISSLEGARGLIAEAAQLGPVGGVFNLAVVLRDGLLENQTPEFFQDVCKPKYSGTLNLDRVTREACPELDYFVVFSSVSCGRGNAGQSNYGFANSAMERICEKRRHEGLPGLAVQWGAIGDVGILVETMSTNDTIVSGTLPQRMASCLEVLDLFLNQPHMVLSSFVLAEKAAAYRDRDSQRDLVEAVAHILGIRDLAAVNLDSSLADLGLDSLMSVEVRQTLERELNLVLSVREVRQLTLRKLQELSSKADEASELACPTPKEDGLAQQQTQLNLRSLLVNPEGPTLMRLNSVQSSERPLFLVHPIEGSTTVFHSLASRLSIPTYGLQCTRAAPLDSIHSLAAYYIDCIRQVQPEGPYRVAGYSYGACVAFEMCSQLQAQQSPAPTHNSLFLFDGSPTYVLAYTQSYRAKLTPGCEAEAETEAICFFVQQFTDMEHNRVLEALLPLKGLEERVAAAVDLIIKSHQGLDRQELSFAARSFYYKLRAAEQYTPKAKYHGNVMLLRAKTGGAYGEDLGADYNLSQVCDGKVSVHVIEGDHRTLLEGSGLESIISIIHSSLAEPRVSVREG
T3 sequence (Q932Y6 whole entry): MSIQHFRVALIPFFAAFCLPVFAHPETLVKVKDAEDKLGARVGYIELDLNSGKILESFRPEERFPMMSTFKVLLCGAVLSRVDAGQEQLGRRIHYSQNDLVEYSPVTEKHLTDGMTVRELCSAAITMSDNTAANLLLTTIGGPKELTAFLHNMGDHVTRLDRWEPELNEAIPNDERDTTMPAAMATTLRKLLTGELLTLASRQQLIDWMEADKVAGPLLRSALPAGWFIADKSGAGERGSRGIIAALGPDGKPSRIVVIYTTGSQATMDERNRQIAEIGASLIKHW
T2 sequence (Q38C91 whole entry): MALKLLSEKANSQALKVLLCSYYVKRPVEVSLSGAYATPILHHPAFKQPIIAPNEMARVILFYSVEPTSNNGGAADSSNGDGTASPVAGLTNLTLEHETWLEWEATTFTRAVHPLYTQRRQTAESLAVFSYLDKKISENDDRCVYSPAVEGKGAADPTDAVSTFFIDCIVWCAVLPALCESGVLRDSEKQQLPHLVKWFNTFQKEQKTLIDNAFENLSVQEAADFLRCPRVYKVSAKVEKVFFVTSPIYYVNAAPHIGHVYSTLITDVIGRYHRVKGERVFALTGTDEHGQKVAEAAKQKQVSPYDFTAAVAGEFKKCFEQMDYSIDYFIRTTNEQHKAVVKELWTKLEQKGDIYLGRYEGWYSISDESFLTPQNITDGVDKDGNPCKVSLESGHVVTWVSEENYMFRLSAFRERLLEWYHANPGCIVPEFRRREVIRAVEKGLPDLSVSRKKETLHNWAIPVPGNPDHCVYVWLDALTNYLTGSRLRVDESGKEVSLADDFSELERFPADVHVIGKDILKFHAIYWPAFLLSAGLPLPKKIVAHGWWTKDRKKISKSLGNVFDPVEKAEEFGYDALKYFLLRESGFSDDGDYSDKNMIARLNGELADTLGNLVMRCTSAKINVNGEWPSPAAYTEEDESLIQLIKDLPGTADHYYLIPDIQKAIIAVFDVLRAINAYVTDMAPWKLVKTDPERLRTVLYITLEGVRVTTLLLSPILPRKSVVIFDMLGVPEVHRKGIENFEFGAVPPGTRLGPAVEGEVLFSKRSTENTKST
Sequence of ADP-ribosylation factor GTPase-activating protein 1 (Q62848 whole entry, the tested form may be a part): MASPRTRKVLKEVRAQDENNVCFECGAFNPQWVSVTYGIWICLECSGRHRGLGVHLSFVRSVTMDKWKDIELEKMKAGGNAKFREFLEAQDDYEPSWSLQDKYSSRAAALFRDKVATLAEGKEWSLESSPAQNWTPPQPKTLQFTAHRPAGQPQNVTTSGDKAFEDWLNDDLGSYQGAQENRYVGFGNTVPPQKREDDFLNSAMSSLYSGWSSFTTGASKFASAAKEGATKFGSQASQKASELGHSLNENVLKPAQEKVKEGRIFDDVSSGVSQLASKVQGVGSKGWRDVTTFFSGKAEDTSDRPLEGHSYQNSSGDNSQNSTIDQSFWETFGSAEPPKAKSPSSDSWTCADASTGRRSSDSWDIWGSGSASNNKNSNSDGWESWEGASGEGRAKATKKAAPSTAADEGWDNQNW
Sequence of Tyrosine-protein phosphatase non-receptor type 11 (Q06124 whole entry): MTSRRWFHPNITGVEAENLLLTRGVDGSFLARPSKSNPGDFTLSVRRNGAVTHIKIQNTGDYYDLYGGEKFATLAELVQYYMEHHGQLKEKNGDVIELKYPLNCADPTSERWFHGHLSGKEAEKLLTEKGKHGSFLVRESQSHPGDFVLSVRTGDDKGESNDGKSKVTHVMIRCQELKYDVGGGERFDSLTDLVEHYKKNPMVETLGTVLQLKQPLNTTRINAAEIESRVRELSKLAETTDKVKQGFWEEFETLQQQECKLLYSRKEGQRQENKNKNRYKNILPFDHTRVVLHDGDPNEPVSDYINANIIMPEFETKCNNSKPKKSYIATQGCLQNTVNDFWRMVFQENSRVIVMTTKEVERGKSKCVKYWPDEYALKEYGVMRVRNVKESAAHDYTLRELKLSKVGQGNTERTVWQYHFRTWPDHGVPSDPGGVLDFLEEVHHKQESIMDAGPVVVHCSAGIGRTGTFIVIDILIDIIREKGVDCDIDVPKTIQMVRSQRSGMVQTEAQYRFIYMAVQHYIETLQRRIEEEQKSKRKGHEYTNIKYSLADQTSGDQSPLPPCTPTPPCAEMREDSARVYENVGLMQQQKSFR
Sequence of UDP-galactopyranose mutase (P9WIQ1 whole entry): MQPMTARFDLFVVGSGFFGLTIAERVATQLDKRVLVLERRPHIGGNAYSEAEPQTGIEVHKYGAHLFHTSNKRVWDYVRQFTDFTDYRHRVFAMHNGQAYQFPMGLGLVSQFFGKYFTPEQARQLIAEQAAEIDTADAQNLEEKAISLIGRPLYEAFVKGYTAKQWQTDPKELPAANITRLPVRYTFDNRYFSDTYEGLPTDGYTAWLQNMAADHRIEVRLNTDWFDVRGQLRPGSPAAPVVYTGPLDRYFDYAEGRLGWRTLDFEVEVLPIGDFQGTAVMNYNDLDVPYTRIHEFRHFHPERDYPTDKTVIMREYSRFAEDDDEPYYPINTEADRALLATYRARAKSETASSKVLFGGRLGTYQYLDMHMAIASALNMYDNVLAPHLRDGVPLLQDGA

## Cc1nc(NCc2ccc(S(N)(=O)=O)cc2)c2c(C)c(C)sc2n1
[1]
  IC50: 42.5 µM (inactive)

## Cc1ccc(NC(=O)CN(C)C(=O)c2ccc(Cl)c([N+](=O)[O-])c2)cc1
[2]
  IC50: 7.6 µM (active)
[3]
  IC50: 6.26 µM (active)
[4]
  IC50: 56.7 µM (inactive)
[5]
  IC50: 17.9 µM (inactive)
[6]
  IC50: 8.63 µM (active)

## CN1C(=O)/C(=N\CCc2ccccc2)c2c3ccccc3c(O)c3cccc1c23
[7]
  AC50: 0.73 µM (active)
[8]
  IC50: 9.24 µM (active)
[9]
  IC50: 11.5 µM (inactive)
[10]
  EC50: > 150 µM (not active)
[11]
  AC50: 0.902 µM (active)
[12]
  IC50: 5.98 µM (active)
[13]
  IC50: 2.19 µM (active)
[14]
  EC50: 11.3 µM (active)
[15]
  IC50: > 49.8 µM (inactive)
[16]
  EC50: > 150 µM (not active)
[17]
  EC50: 1.6 µM (active)

## COc1cc(Cl)cc(/C=N\NC(=O)c2ccc3c(c2)OCO3)c1O
[18]
  IC50: 21.5 µM (active)
[19]
  IC50: > 100 µM (inactive)
[20]
  IC50: 4.16 µM (active)
[21]
  AC50: 5.99 µM (active)
[22]
  IC50: 9.73 µM (active)
[23]
  IC50: > 100 µM (inactive)
[24]
  IC50: 5.02 µM (active)
[25]
  AC50: 16.6 µM (active)
[26]
  IC50: 65.6 µM (active)
